Here are results for eight compounds from patent publication US7491794B2, “Macrocyclic compounds as inhibitors of viral replication” (Intermune, Inc., priority 2003, dated 2009).

Read-outs that look alike come from different tables or passages of the source.

The target in one experiment is T1, NS3-NS4 protease (Hepatitis C virus genotype 1a, UniProt P27958).
T1 construct: Recombinant E. coli or Baculovirus full-length NS3 was diluted to 3.33 μM with assay buffer; made in house; host or cells: E. coli or baculovirus (BV) system
Briefly: NS3-NS4 protease assay / NS3 inhibition assay, Section C. Format: biochemical. On the procedure: NS3 complex formation with NS4A-2.
Recombinant E. coli or Baculovirus full-length NS3 was diluted to 3.33 μM with assay buffer and transfered material to an eppendorf tube and place in water bath in 4° C. refrigerator. The appropriate amount of NS4A-2 to 8.3 mM in assay buffer was added to equal the volume of NS3 in step 2.1.1 (conversion factor −3.8 mg/272 μL assay buffer). The material was transferred to an eppendorf tube and place in water bath in 4° C. refrigerator.
After equilibration to 4° C., equal volumes of NS3 and NS4A-2 solutions were combined in an eppendorf tube, mix gently with a manual pipettor, and incubate mixture for 15 minutes in the 4° C. water bath. Final concentrations in the mixture are […] NS3, 4.15 mM NS4A-2 (2485-fold molar excess NS4A-2).
After 15 minutes at 4° C., the NS3/NS4A-2 eppendorf tube was removed and place it in a room temperature water bath for 10 minutes. NS3/NS4A-2 was alliquoted at appropriate volumes and store at −80° C. (E. coli NS3 run at 2 nM in assay, aliquot at 25 μL. BV NS3 run at 3 nM in assay, aliquot at 30 μL).
Step 2.2.5. Sample compounds were dissolved to 10 mM in DMSO then diluted to 2.5 mM (1:4) in DMSO.
Step 2.2.6. The E. coli. NS3/NS4A-2 was diluted to 4 nM NS3 (1:417.5 of […] stock−18 μL 1.67 μM stock+7497 μL assay buffer). The BV NS3/NS4A-2 was diluted to 6 nM NS3 (1:278.3 of 1.67 μM stock−24 μL 1.67 μM stock+6655 μL assay buffer).
Step 2.2.7. Using the manual multichannel pipettor, and being careful not to introduce bubbles into the plate, 50 μL assay buffer were added to wells A01-H01 of a black Costar 96-well polypropylene storage plate.
Step 2.2.8. Using the manual multichannel pipettor, and being careful not to introduce bubbles into the plate, 50 μL of diluted NS3/NS4A-2 from step 2.2.6 were added to wells A02-H12 of plate in step 2.2.7.
Step 2.2.9. Using the manual multichannel pipettor, and being careful not to introduce bubbles into the plate, 25 μL of the wells in drug dilution plate in step 2.2.5 were transferred to corresponding wells in assay plate in step 2.2.8. The tips on multichannel pipettor were changed for each row of compounds transferred.
Step 2.2.10. Using the manual multichannel pipettor, and being careful not to introduce bubbles into the plate, the contents of the wells from the assay plate in step 2.2.9 were mixed by aspirating and dispensing 35 μL of the 75 μL in each well five times. The tips on the multichannel pipettor were changed for each row of wells mixed.
Step 2.2.11. The plate was covered with a polystyrene plate lid, and the plate from step 2.2.10 containing NS3 protease and sample compounds was pre-incubated 10 minutes at room temperature.
While the plate from step 2.2.11 was pre-incubating, the RETS1 substrate was diluted in a 15 mL polypropylene centrifuge tube. The RETS1 substrate was diluted to 8 μM (1:80.75 of 646 μM stock−65 μL 646 μM stock+5184 μL assay buffer).
After the plate in step 2.2.11 was done pre-incubating, and using the manual multichannel, 25 μL of substrate were added to all wells on the plate. The contents of the wells of plate were quickly mixed, as in step 2.2.10, but mixing 65 μL of the 100 μL in the wells.
The plate was read in kinetic mode on the Molecular Devices SpectraMax Gemini XS plate reader. Reader settings: Read time: 30 minutes, Interval: 36 seconds, Reads: 51, Excitation λ: 335 nm, Emission λ: 495 nm, cutoff: 475 nm, Automix: off, Calibrate: once, PMT: high, Reads/well: 6, Vmax pts: 21 or 28/51 depending on length of linearity of reaction.
IC50s were determined using a four parameter curve fit equation, and converted to Ki's using the following Km's:
where Ki=IC50/(1+[S]/Km))

The test system of experiment [1] is HCV sub-genomic replicon, GS4.3. Briefly: Quantitation by ELISA of NPTII in the HCV sub-genomic replicon, GS4.3, Section C. The settings on record: Hepatitis C virus. Format: cell-based. An excerpt:
Quantitation by ELISA of the selectable marker protein, Neomycin phosphotransferase II (NPTII) in the HCV Sub-Genomic Replicon, GS4.3
The HCV sub-genomic replicon (1377/NS3-3′, accession No. AJ242652), stably maintained in HuH-7 hepatoma cells, was created by Lohmann et al. Science 285: 110-113 (1999). The replicon-containing cell culture, designated GS4.3, was obtained from Dr. Christoph Seeger of the Institute for Cancer Research, Fox Chase Cancer Center, Philadelphia, Pa.
GS4.3 cells were maintained at 37° C., 5% CO2, in DMEM (Gibco 11965-092) supplemented with L-glutamine 200 mM (100×) (Gibco25030-081), non-essential amino acids (NEAA)(Biowhittaker 13-114E), heat-inactivated (HI) Fetal Bovine Serum(FBS)(Hyclone SH3007.03) and 750 μg/ml geneticin (G418)(Gibco 10131-035). Cells were sub-divided 1:3 or 4 every 2-3 days.
24 h prior to the assay, GS4.3 cells were collected, counted, and plated in 96-well plates (Costar 3585) at 7500 cells/well in 100 μl standard maintenance medium (above) and incubated in the conditions above. To initiate the assay, culture medium was removed, cells were washed once with PBS (Gibco 10010-023) and 90 μl Assay Medium (DMEM, L-glutamine, NEAA, 10% HI FBS, no G418) was added. Inhibitors were made as a 10× stock in Assay Medium, (3-fold dilutions from 10 μM to […] final concentration, final DMSO concentration 1%), 10 μl were added to duplicate wells, plates were rocked to mix, and incubated as above for 72 h.
An NPTII Elisa kit was obtained from AGDIA, Inc. (Compound direct ELISA test system for Neomycin Phosphotransferase II, PSP 73000/4800). Manufacturer's instructions were followed, with some modifications. 10×PEB-1 lysis buffer was made up to include 500 μM PMSF (Sigma P7626, 50 mM stock in isopropanol). After 72 h incubation, cells were washed once with PBS and 150 μl PEB-1 with PMSF was added per well. Plates were agitated vigorously for 15 minutes, room temperature, then frozen at −70° C. Plates were thawed, lysates were mixed thoroughly, and 100 μl were applied to an NPTII Elisa plate. A standard curve was made. Lysate from DMSO-treated control cells was pooled, serially diluted with PEB-1 with PMSF, and applied to duplicate wells of the ELISA plate, in a range of initial lysate amount of 150u1-2.5 ul. In addition, 100 μl buffer alone was applied in duplicate as a blank. Plates were sealed and gently agitated at room temperature for 2 h. Following capture incubation, the plates were washed 5×300 μl with PBS-T (0.5% Tween-20, PBS-T was supplied in the ELISA kit). For detection, a 1× dilution of enzyme conjugate diluent MRS-2 (5×) was made in PBS-T, into which 1:100 dilutions of enzyme conjugates A and B were added, as per instructions. Plates were resealed, and incubated with agitation, covered, room temperature, for 2 h. The washing was then repeated and 100 μl of room temperature TMB substrate was added. After approximately 30 minutes incubation (room temperature, agitation, covered), the reaction was stopped with 50 μl 3M sulfuric acid. Plates were read at 450 nm on a Molecular Devices Versamax plate reader.
Inhibitor effect was expressed as a percentage of DMSO-treated control signal, and inhibition curves were calculated using a 4-parameter equation: y=A+((B−A)/(1+((C/x)^D))), where C is half-maximal activity or EC50.

[2] abbreviates: GS4.3 cells, 72 h incubation, read-out: EC50.

A word on the IC50: it is the concentration that inhibits the measured activity by half. One may read the EC50 as the concentration that produces a half-maximal response.

T1 sequence (P27958 1027-1657): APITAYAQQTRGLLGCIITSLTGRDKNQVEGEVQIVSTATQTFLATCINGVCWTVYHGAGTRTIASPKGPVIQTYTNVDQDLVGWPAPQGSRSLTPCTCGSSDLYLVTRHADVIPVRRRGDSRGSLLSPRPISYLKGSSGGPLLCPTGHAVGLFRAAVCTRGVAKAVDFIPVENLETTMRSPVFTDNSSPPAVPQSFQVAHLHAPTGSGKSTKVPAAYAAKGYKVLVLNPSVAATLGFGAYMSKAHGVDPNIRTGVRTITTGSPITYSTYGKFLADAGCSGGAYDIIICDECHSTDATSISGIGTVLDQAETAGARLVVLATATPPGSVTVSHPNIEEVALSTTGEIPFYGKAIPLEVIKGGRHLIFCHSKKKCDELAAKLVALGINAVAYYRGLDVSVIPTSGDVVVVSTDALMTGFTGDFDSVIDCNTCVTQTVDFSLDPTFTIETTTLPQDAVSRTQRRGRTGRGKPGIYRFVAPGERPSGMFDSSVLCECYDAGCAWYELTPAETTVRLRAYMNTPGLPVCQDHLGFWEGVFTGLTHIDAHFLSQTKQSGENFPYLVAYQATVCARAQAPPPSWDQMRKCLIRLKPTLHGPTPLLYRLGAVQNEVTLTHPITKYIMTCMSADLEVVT

Take `CC(C)(C)OC(=O)N[C@H]1CCCCC/C=C\[C@@H]2C[C@@]2(C(=O)NS(=O)(=O)N2CCC2)NC(=O)[C@@H]2C[C@@H](OC(=O)N3Cc4ccccc4C3)CN2C1=O` [Compound 117, (1S,4R,6S,14S,18R)-1,3-Dihydro-isoindole-2-carboxylic acid 14-tert-butoxycarbonylamino-4-(azetidino-sulfonyl-aminocarbonyl)-2,15-dioxo-3,16-diaza-tricyclo[14.3.0.0^4,6]nonadec-7-en-18-yl ester]: the half-inhibitory concentration (IC50) on NS3-NS4 protease (read-out: NS3-NS4 IC50) is below 0.1 µM. The EC50 in experiment [1] (setting [2]) was below 0.1 µM.
As for `CN1CCN(S(=O)(=O)NC(=O)[C@@]23C[C@H]2/C=C\CCCCC[C@H](NC(=O)OC(C)(C)C)C(=O)N2C[C@H](OC(=O)N4Cc5ccccc5C4)C[C@H]2C(=O)N3)CC1` [Compound 118, (1S,4R,6S,14S,18R)-1,3-Dihydro-isoindole-2-carboxylic acid 14-tert-butoxycarbonylamino-4-(4-methylpiperazine-1-sulfonyl-aminocarbonyl)-2,15-dioxo-3,16-diaza-tricyclo[14.3.0.0^4,6]nonadec-7-en-18-yl ester], the IC50 at NS3-NS4 protease (read-out: NS3-NS4 IC50) was below 0.1 µM. Also, in experiment [1] (setting [2]), the concentration giving a half-maximal response (EC50) is below 0.1 µM.
For the compound `CC(C)(C)OC(=O)N[C@H]1CCCCC/C=C\[C@@H]2C[C@@]2(C(=O)NS(=O)(=O)N2CCN(C(=O)OCC[Si](C)(C)C)CC2)NC(=O)[C@@H]2C[C@@H](OC(=O)N3Cc4ccccc4C3)CN2C1=O` [Compound 119, (1S,4R,6S,14S,18R)-1,3-Dihydro-isoindole-2-carboxylic acid 14-tert-butoxycarbonylamino-4-(4-(2-trimethylsilylethoxycarbonyl)piperazine-1-sulfonyl-aminocarbonyl)-2,15-dioxo-3,16-diaza-tricyclo[14.3.0.0^4,6]nonadec-7-en-18-yl ester], the half-maximal inhibitory concentration (IC50) on NS3-NS4 protease is below 0.1 µM. For the same compound, in experiment [1] (72 h), the 50% effective concentration (EC50) is below 0.1 µM.
For the compound `CC(C)(C)OC(=O)N[C@H]1CCCCC/C=C\[C@@H]2C[C@@]2(C(=O)NS(=O)(=O)NC2CC2)NC(=O)C2C[C@@H](OC(=O)N3Cc4cccc(F)c4C3)CN2C1=O` (stereo partly shown) [Compound 121], on NS3-NS4 protease (read-out: NS3-NS4 IC50), the IC50 was below 0.1 µM. Moreover, the EC50 in experiment [1] (setting [2]) was below 0.1 µM.
On to `CC(C)(C)OC(=O)N[C@H]1CCCCC/C=C\[C@@H]2C[C@@]2(C(=O)NS(N)(=O)=O)NC(=O)[C@@H]2C[C@@H](OC(=O)N3Cc4ccccc4C3)CN2C1=O` [Compound 122, (1S,4R,6S,14S,18R)-1,3-Dihydro-isoindole-2-carboxylic acid 14-tert-butoxycarbonylamino-4-(aminosulfonyl-aminocarbonyl)-2,15-dioxo-3,16-diaza-tricyclo[14.3.0.0^4,6]nonadec-7-en-18-yl ester], for which, at NS3-NS4 protease (read-out: NS3-NS4 IC50), the IC50 is below 0.1 µM. For the same compound, in experiment [1] (setting [2]), the EC50 is below 0.1 µM.
As for `CN1CCC(N(C2CC2)S(=O)(=O)NC(=O)[C@@]23C[C@H]2/C=C\CCCCC[C@H](NC(=O)OC(C)(C)C)C(=O)N2C[C@H](OC(=O)N4Cc5ccccc5C4)C[C@H]2C(=O)N3)CC1` [Compound 124, (1S,4R,6S,14S,18R)-1,3-Dihydro-isoindole-2-carboxylic acid 14-tert-butoxycarbonylamino-4-(cyclopropyl(1-methylpiperidin-4-yl)aminosulfonyl-aminocarbonyl)-2,15-dioxo-3,16-diaza-tricyclo[14.3.0.0^4,6]nonadec-7-en-18-yl ester], at NS3-NS4 protease (read-out: NS3-NS4 IC50), the half-maximal inhibitory concentration (IC50) is below 1 µM. For the same compound, in experiment [1] (setting [2]), the concentration for a half-maximal effect (EC50) is below 0.1 µM.
Take `CC(C)(C)OC(=O)N[C@H]1CCCCC/C=C\[C@@H]2C[C@@]2(C(=O)NS(=O)(=O)N(CCC#N)C2CC2)NC(=O)[C@@H]2C[C@@H](OC(=O)N3Cc4ccccc4C3)CN2C1=O` [Compound 125, (1S,4R,6S,14S,18R)-1,3-Dihydro-isoindole-2-carboxylic acid 14-tert-butoxycarbonylamino-4-(2-cyanoethyl(cyclopropyl)aminosulfonyl-aminocarbonyl)-2,15-dioxo-3,16-diaza-tricyclo[14.3.0.0^4,6]nonadec-7-en-18-yl ester]: the half-maximal inhibitory concentration (IC50) on NS3-NS4 protease (read-out: NS3-NS4 IC50) was below 0.1 µM. For the same compound, in experiment [1] (setting [2]), the EC50 was below 0.1 µM.
As to `CC(C)N(C(C)C)S(=O)(=O)NC(=O)[C@@]12C[C@H]1/C=C\CCCCC[C@H](NC(=O)OC(C)(C)C)C(=O)N1C[C@H](OC(=O)N3Cc4ccccc4C3)C[C@H]1C(=O)N2` [Compound 126, (1S,4R,6S,14S,18R)-1,3-Dihydro-isoindole-2-carboxylic acid 14-tert-butoxycarbonylamino-4-(N,N-diisopropylaminosulfonyl-aminocarbonyl)-2,15-dioxo-3,16-diaza-tricyclo[14.3.0.0^4,6]nonadec-7-en-18-yl ester], the IC50 on NS3-NS4 protease (read-out: NS3-NS4 IC50) is below 0.1 µM. In addition, the 50% effective concentration (EC50) in experiment [1] (setting [2]) is below 0.1 µM.
